We go through two molecules from paper PMC11268423 (Science Advances, 2024).

Assay in all cases: microbe, parasite or virus in culture
What all share (type): cell-based

The test system of experiment [1] is SARS-CoV-2 WA-1 (P1). The note with it: Severe acute respiratory syndrome coronavirus 2, A549-ACE2.
Experiment [2] concerns SARS-CoV-2 WA-1 strain. As to conditions: Severe acute respiratory syndrome coronavirus 2.
Experiment [3] deals with SARS-CoV-2 WA-1 (P1). As to conditions: Severe acute respiratory syndrome coronavirus 2.

One may read the EC50 as the midpoint of the concentration-response curve. Low readings indicate a more potent agent, high ones a less potent agent. A word on the EC90: it is the concentration at which the effect reaches the 90% level. On to `CC(C)(C)[C@H](NC(=O)C(F)(F)F)C(=O)N1C[C@H]2[C@@H]([C@H]1C(=O)N[C@H](C#N)C[C@@H]1CCNC1=O)C2(C)C` [Nirmatrelvir], for which the figures for the EC50 in experiment [1], in experiment [2] and in experiment [3] were 54 nM, 150 nM and 34.8 nM, respectively. In addition, it took 370 nM to reach the 90% level in experiment [2] (EC90).
For `CCC(CC)COC(=O)[C@H](C)N[P@](=O)(OC[C@H]1O[C@@](C#N)(c2ccc3c(N)ncnn23)[C@H](O)[C@@H]1O)Oc1ccccc1` [Remdesivir], the EC50 in experiment [1] came to 75 nM; in experiment [3], 29.1 nM.
